Laboratory results reported in patent publication US6310067A, “Urocanic acid derivatives” (Senju Pharmaceutical Co., Ltd., priority 1998, dated 2001).
Where two headings read alike, the source gives them in different places.

Columns and labels:
[1] = test system: type IV allergy (efferent phase), mouse contact-type dermatitis in auricles; assay: Type IV allergy (efferent phase), DNFB contact-type dermatitis in auricles; type: in vivo, Male C57BL/6J mice; details: n = 9-11, 1 hr before induction
Description: The present compound was assessed for its effect on type IV allergy (efferent phase) through oral and topical administrations, using a DNFB contact-type dermatitis model.
(§1) Male C57BL/6J mice purchased from Clea Japan, Inc. were used.
The mice which had their abdominal hair removed on the previous day were sensitized by applying to them on a 1-cm^2 area of their abdominal surface 25 μl of 0.5% dinitrofluorobenzene (DNFB) dissolved in acetone, under anesthesia with ketamine hydrochloride: xylazine hydrochloride (9:1). Five days after the sensitization procedure, 10 μl of 0.1% DNFB dissolved in acetone was applied to the outer side of their right auricles to induce infammation. Twenty-four hrs after the induction of inflammation, the thickness of the auricles was measured with a dial thickness gauge (manufactured by Ozaki Seisakusho) and the rate of edema calculated by comparing it with pre-induction thickness.
The test compounds were administered either orally or by topically applying 15 μl of its solution onto the outer side of the auricles, 1 hr before the induction.

[2] = test system: type IV allergy (afferent phase), mouse contact-type dermatitis in auricles; assay: Type IV allergy (afferent phase), DNFB contact-type dermatitis in auricles, oral administration; type: in vivo, Male C57BL/6J mice; details: 30 mg/kg, 1 hr before sensitization, vs distilled water, n = 7-9
Description: The present compound was assessed for its effect on type IV allergy (afferent phase) through oral administrations, using a DNFB contact-type dermatitis model.
as §1
The test compounds were orally administered to the mice. One hr later, sensitization was performed by applying 30 μl of 0.5% DNFB acetone solution. Five days after the sensitization procedure, 10 μl of 0.1% DNFB dissolved in acetone was applied to their right auricles to induce contact-type dermatitis. Then, 24 hrs later, the thickness of the auricles was measured and the rate of edema calculated.

allergy = details: background statement, cited from earlier work
[3] = test system: rat type I allergy (PCA reaction); assay: Rat type I allergy: passive anaphylaxis (PCA) reaction, oral administration; type: in vivo, Male Wistar rats; details: 100 mg/5 ml/kg oral, 60 min before PCA provocation; for Optical density: 625 nm, mean ± standard deviation, n = 5-6; for Inhibition rate (%): vs CMC-Na
Description: The present compound was assessed for its effect on type I allergy through oral administration.
The compound of Example 1 100 mg/5 ml/kg
Male Wistar rats purchased from SLC Japan were used in the test.
The rats were intracutaneously injected in the back with 100 μl of antiserum (16-fold dilution) under pentobarbital anesthesia. Forty-eight hrs later, the animals were injected with 5 ml/kg of a mixture of ovalbumin (25 mg/kg) and Evans blue (12.5 mg/kg) to provoke passive anaphylaxis (PCA) reaction.
The rats were sacrificed 30 min after the provocation of PCA reaction and dye-infiltrated region of their back skin was cut out, the dye extracted with 5 ml of formamide and its optical density measured (625 nm).
Each of the test compounds was orally administered 60 min before the provocation of PCA reaction.

[4] = Table 4, topically applied (as titled), concentration 0.5%, vs CMC-Na
[5] = topical, concentration 0.2%, vs methanol
[6] = topical, concentration 0.5%, vs methanol

For `COC(=O)C=Cc1cn(-c2nccs2)cn1` [Example 9, 1-(2,5-Thiazolyl)urocanic Acid Methyl Ester], the “Inhibition rate (%)” value [1, 4] was 89.9%.

For `O=C(O)C=Cc1cn(CCN2CCN(C(c3ccccc3)c3ccccc3)CC2)cn1` [Example 2, 1-(Diphenylmethylpiperazinylethyl)urocanic Acid], the “Inhibition rate (%)” value [2] was 56.2%.

In the case of `O=C(O)/C=C/c1c[nH]cn1` [urocanic acid, Urocanic acid], the “effect on delayed allergy” value (allergy; listed as Urocanic acid) is given as “suppressive effect on delayed allergy” and the “effect on delayed allergy” value (allergy) is given as “by no means satisfactory”.

For `COC(=O)C=Cc1cn(-c2ccc(N)cc2)cn1` [Example 5, 1-(4-Aminophenyl)urocanic Acid Methyl Ester], the “Inhibition rate (%)” value [1, 5] was 99.9%.

For `COC(=O)C=Cc1cn(CCN2CCN(C(c3ccccc3)c3ccccc3)CC2)cn1` [Example 1, 1-(Diphenylmethylpiperazinylethyl)urocanic Acid Methyl Ester], the Optical density [3] was 0.413 ± 0.051, the “Inhibition rate (%)” value [3] was 28.7% and the “Inhibition rate (%)” value [1, 5] was 73.5%. The “Inhibition rate (%)” value [1, 6] was 83.9% and the “Inhibition rate (%)” value [2] was 47.8%.

For `COC(=O)C=Cc1cn(CCN2CCN(C(c3ccccc3)c3ccccn3)CC2)cn1` (stereo not shown) [Example 3, 1-[Phenyl(2-pyridyl)methylpiperazinylethyl]urocanic Acid Methyl Ester], the Optical density [3] was 0.409 ± 0.033, the “Inhibition rate (%)” value [3] was 29.2% and the “Inhibition rate (%)” value [1, 5] was 47.5%. For the same molecule, the “Inhibition rate (%)” value [1, 6] was 79.2% and the “Inhibition rate (%)” value [2] was 49.5%.

With `COC(=O)C=Cc1cn(CC=Cc2ccccc2)cn1` [Example 17, 1-(3-Phenyl-2-propenyl)urocanic Acid Methyl Ester] the “Inhibition rate (%)” value [1, 4] was 70.5%.
